≈ marks a conversion by molar mass, not a printed value. Read-outs that look alike come from different tables or passages of the source.

Data on 14 compounds can be found in patent US6197802A, “Fungicidal melithiazole derivatives” (American Cyanamid Co., priority 1997, dated 2001).

One series has as its system Botrytis cinera. As to the kind of experiment: Serial dilution test, Minimum Inhibitory Concentration, Botrytis cinera (BOC). Format: cell-based. Conditions: read-out: MIC (BOC). How it is done: (§1) Determination of Minimum Inhibitory Concentration by Test Compounds in the Serial Dilution Test with Botrytis cinera (BOC), and Hansenula anomala (HNA).
(§2) The MIC (Minimum Inhibitory Concentration) value, which indicates the lowest concentration of the active ingredient in the growth medium which causes a total inhibition of mycelial growth, is determined by serial dilution tests. The compounds of the invention have been compared with known melithiazole C. melithiazole C-amide and with the commercially available strobilurines kresoxim-methyl (BASF AG) and azoxystrobin (ZENECA).

Another series has as its system Hansenula anomala. Put plainly: Serial dilution test, Minimum Inhibitory Concentration, Hansenula anomala (HNA). Conditions: read-out: MIC (HNA). Format: cell-based. How it is done:
as §1, §2

Series [1] relates to mouse fibroblasts (cell line L929). As to the kind of experiment: Toxicity using mouse fibroblasts (cell line L929). To be noted: for Therapeutic Index: ratio toxicity IC50 (L929) / BOC-MIC. Format: cell-based. The source says: In addition, the toxicity IC50 of these compounds has been evaluated using mouse fibroblasts (cell line L929). The therapeutic index given is defined as the ratio between the toxicity and the BOC-MIC value (IC50 /MIC).

The test system of series [2] is powdery mildew (Erysiphe graminis) on wheat. As to the kind of experiment: Foliar systemicity in wheat leaves, wheat powdery mildew as indicator disease. Conditions: for Systemicity distal (disease free zone) / Systemicity proximal (disease free zone): wheat leaves, band application of 400 ppm solution; for Systemicity distal (disease free zone): toward leaf apex; for Systemicity proximal (disease free zone): toward leaf base.
Excerpt: Foliar systemicity: When the primary leaves of wheat planted in 8 cm diameter pots in the greenhouse were fully expanded, the plants were cut back to four leaves in each pot of which two were marked with a permanent marker 5 cm below the leaf tip on the upper leaf surface. Thus there were two band-treated and two untreated plants in each pot. […] The application band covered the whole leaf width. After application and after the bands were dried, the plants were moved to the greenhouse and kept there for 2 days to allow for movement of the compounds. The plants were kept by bottom watering. The plants were then inoculated by dusting them with powdery mildew conidia (Erysiphe graminis). Evaluations were made 7-8 days after inoculation. Distal and proximal movement were assessed as follows: The distal and proximal disease free zones on the upper leaf surface were measured in mm. The distal direction is from the band toward the leaf apex and the proximal direction is from the band towards the leaf base.

Series [3] has as its system Plasmopara viticola. As to the kind of experiment: Curative (2 d cur) activity, grape downy mildew (GDM). To be noted: 2 d curative. It counts as in vivo.
Series [4] concerns Plasmopara viticola. Put plainly: Protective (1 d res) activity, grape downy mildew (GDM). To be noted: 1 d protective. Format: in vivo.
The subject of a further series is Pyrenophora teres. Put plainly: Protective (1 d res) activity, barley net blotch (BNB). Conditions: 1 d protective. It counts as in vivo.
The test system of another series is Bortrytis cinera. To be noted: poster of B. Bohlendorf et al., 1996; cited from earlier work.
The next series concerns Phytophthora infestans. It counts as in vivo. Conditions: 1 d protective.
For the next series, the system named is phytopathogenic fungi. Put plainly: Curative in-vivo tests, overall statement. To be noted: overall statement in words. How it is done:
Test Plants: Test plants were grown up in the greenhouse. Either seed, pregerminated seed or rooted vegetative plant material was planted in pots containing a fertilized soil/peat mixture. Test plants were used for treating them with the various fungicides when they were in the 3-4 leaf stage. The number of leaves of vegetatively propagated plant material was cut back to 3-4 leaves per plant.
Application: Test plants were treated with fungicides either 1 or 3 days before (protective treatments) or 2 or 3 days after (curative treatments) the inoculation with a pathogen. The test compounds were applied to the test plants using a lateral-nozzle sprayer with a turntable rotating the pots, or the test compounds were applied with an hand-held airbrush. 24 plants were used per treatment.
Compounds: Technical material of the compound according to the invention coded MCM, and of commercially available strobilurines kresoxim-methyl (BASF) and azoxystrobin (ZENECA) was dissolved in acetone with 0.5% Triton X155 at a concentration of 0.5%. […]
Assessment of diseases: The percentage of leaf area infected was assessed by visual estimation when untreated control plants were just completely diseased. Each plant was individually evaluated and then the mean infection rating was calculated for each treatment. The fungicidal activity was calculated using the following formula: [formula] […]

Setting [5] is: Botrytis cinera, total inhibition of mycelial growth.
[6] abbreviates: total inhibition of mycelial growth.
The mark [7] stands for this setting: toxicity, mouse fibroblasts L929, read-out: IC50.

For `COC(=O)/C=C(/OC)[C@H](C)[C@H](/C=C/c1csc(/C(C)=N\OCc2ccccc2)n1)OC` [Example 9], the figures for the MIC with Botrytis cinera (setting [5]) and with Hansenula anomala (setting [6]) were 0.15 µg/mL (≈ 0.337 µM) and 0.6 µg/mL (≈ 1.35 µM), respectively. In addition, the “Therapeutic Index” value in [1] is reported as 3.33. Besides, the IC50 in series [1] (setting [7]) was 0.5 µg/mL (≈ 1.12 µM).

With `CCOC(=O)/C=C(/OC)[C@H](C)[C@H](/C=C/c1csc(C(C)=NOC)n1)OC` (mixture of isomers) [(E/Z)-(13/14)], the MIC came out at 0.005 µg/mL with Botrytis cinera (setting [5]) and 0.02 µg/mL in the series on Hansenula anomala (setting [6]). Further, the “Therapeutic Index” value in series [1] was 40. In series [1] (setting [7]), the IC50 came out at 0.2 µg/mL.

Take `CO/C=C(/C(=O)OC)c1ccccc1Oc1cc(Oc2ccccc2C#N)ncn1` [azoxystrobin, reference compound]: in [2], the “Systemicity distal (disease free zone)” value was found to be 43 mm and the “Systemicity proximal (disease free zone)” value was found to be 9 mm.

Turning to `CO/N=C(/C(=O)OC)c1ccccc1COc1ccccc1C` [kresoxim-methyl, reference compound], in the series with Botrytis cinera (setting [5]), the MIC was 0.1 µg/mL (≈ 0.319 µM). Also, the “Therapeutic Index” value in series [1] is reported as 3.75. Moreover, the IC50 in series [1] (setting [7]) was 0.375 µg/mL (≈ 1.2 µM). For the same compound, the “activity (%) GDM 2d cur” value in the series with Plasmopara viticola [3] (dose 4 ppm) turned out to be 0%; in the series on Plasmopara viticola [3] (dose 20 ppm), 9%. The “activity (%) GDM 1 d res” value in the series on Plasmopara viticola [4] (dose 4 ppm) is recorded as 39%; in the series with Plasmopara viticola [4] (dose 20 ppm), 87%. The “activity (%) BNB 1 d res” value in the series with Pyrenophora teres (dose 4 ppm) came to 97%; in the series on Pyrenophora teres (dose 20 ppm), 98%. Also, the “Systemicity distal (disease free zone)” value in series [2] is 23 mm. Moreover, in series [2], the “Systemicity proximal (disease free zone)” value is on record as 13 mm.

Regarding `COC(=O)/C=C(/OC)[C@H](C)[C@H](/C=C/c1csc(C(C)OC(C)=O)n1)OC` (some centres unmarked) [Example 20, Methyl 7-[2-(1-acetoxyethyl)thiazol-4-yl]-3,5-dimethoxy-4-methylheptan-2,6-dienoate], the values for the MIC in the series on Botrytis cinera (setting [5]) and in the series with Hansenula anomala (setting [6]) were 0.3 µg/mL (≈ 0.782 µM) and 1.25 µg/mL (≈ 3.26 µM), respectively. The “Therapeutic Index” value in [1] is reported as over 13.33. In addition, in series [1] (setting [7]), the IC50 was over 4 µg/mL.

`COC(=O)/C=C(/OC)[C@H](C)[C@H](/C=C/c1csc(C(C)=O)n1)OC` [2:melithiazole C, methyl 7-(2-acetylthiazol-4-yl)-3,5-dimethoxy-4-methylheptan-2,6-dienoate, reference compound]: the MIC was 1.5 µg/mL (≈ 4.42 µM) with Botrytis cinera (setting [5]) and 3 µg/mL (≈ 8.84 µM) in the series on Hansenula anomala (setting [6]). Besides, in [1], the “Therapeutic Index” value came to 0.37. In [1] (setting [7]), the IC50 was found to be 0.55 µg/mL (≈ 1.62 µM). The “in vitro activity against Bortrytis cinera” value in the series on Bortrytis cinera is recorded as “weak in vitro activity”.

Regarding `C=C(C)c1nc(/C=C/[C@H](OC)[C@@H](C)/C(=C\C(=O)OC)OC)cs1` [Example 29, Methyl 7-[2-isopropenylthiazol-4-yl]-3,5-dimethoxy-4-methylheptan-2,6-dienoate], the minimum inhibitory concentration (MIC) in the series with Botrytis cinera (Botrytis) came out at 0.02 µg/mL (≈ 0.0593 µM); in the series on Hansenula anomala it was 0.3 µg/mL (≈ 0.889 µM). The compound further gave a 50% inhibitory concentration (IC50) in series [1] (Mus musculus, L929) of 2 µg/mL (≈ 5.93 µM). The “Therapeutic Index” value in [1] is 100.

As to `CON=C(C)c1nc(/C=C/[C@H](OC)[C@@H](C)/C(=C\C(=O)OC)OC)cs1` (mixture of isomers) [MCM], the “activity (%) GDM 2d cur” value was 0% in the series on Plasmopara viticola [3] (dose 4 ppm) and 59% in the series on Plasmopara viticola [3] (dose 20 ppm). The “activity (%) GDM 1 d res” value stood at 92% in the series with Plasmopara viticola [4] (dose 4 ppm) and 100% with Plasmopara viticola [4] (dose 20 ppm). Also, the “activity (%) TLB 1 d res” value in the series on Phytophthora infestans (dose 4 ppm) was determined as 25%; in the series with Phytophthora infestans (dose 20 ppm), 65%. Besides, the “activity (%) BNB 1 d res” value in the series with Pyrenophora teres (dose 4 ppm) and in the series with Pyrenophora teres (dose 20 ppm) was 100% in each case. The curative activity entry in the series with phytopathogenic fungi is “better than that of the commercialized strobilurine derivatives kresoxim-methyl and azoxystrobin”. The foliar systemicity entry in series [2] (overall statement in words) is “better than that of the commercialized strobilurine derivatives kresoxim-methyl and azoxystrobin”. Moreover, the bioavailable result in series [2] (plant, implied by foliar systemicity and curative values) is “readily and highly bioavailable”. Further, in series [2], the “Systemicity distal (disease free zone)” value came out at 50 mm. Moreover, in series [2], the “Systemicity proximal (disease free zone)” value was determined as 21 mm.

As for `COC(=O)/C=C(/OC)[C@H](C)[C@H](/C=C/c1csc(C(C)OC)n1)OC` (some centres unmarked) [Example 21, Methyl 7-[2-(1-methoxyethyl)thiazol-4-yl]-3,5-dimethoxy-4-methylheptan-2,6-dienoate], the MIC with Botrytis cinera (setting [5]) was found to be 0.15 µg/mL (≈ 0.422 µM); in the series with Hansenula anomala (setting [6]), 0.08 µg/mL (≈ 0.225 µM). Besides, the “Therapeutic Index” value in series [1] is reported as 13.33. Also, in series [1] (setting [7]), the IC50 was determined as 2 µg/mL (≈ 5.63 µM).

Consider `CO/C(=C/C(N)=O)[C@H](C)[C@H](/C=C/c1csc(C(C)=O)n1)OC` [1:melithiazole C-amide, 7-(2-acetylthiazol-4-yl)-3,5-dimethoxy-4-methylheptan-2,6-dienoic amide, reference compound], for which the MIC in the series on Botrytis cinera (setting [5]) and in the series on Hansenula anomala (setting [6]) was over 10 µg/mL each time. In addition, the “Therapeutic Index” value in [1] was under 0.8. In series [1] (setting [7]), the IC50 turned out to be 8 µg/mL (≈ 24.7 µM).

For `CO/N=C(/C)c1nc(/C=C/[C@H](OC)[C@@H](C)/C(=C\C(=O)OC)OC)cs1` [8:(Z)-MCM], the minimum inhibitory concentration (MIC) stood at 0.005 µg/mL (≈ 0.0136 µM) in the series with Botrytis cinera (setting [5]) and 0.08 µg/mL (≈ 0.217 µM) in the series on Hansenula anomala (setting [6]). Also, the “Therapeutic Index” value in [1] is 100. In addition, in [1] (setting [7]), the IC50 was found to be 0.5 µg/mL (≈ 1.36 µM).

For the compound `COC(=O)/C=C(/OC)[C@H](C)[C@H](/C=C/c1csc(/C(C)=N/OCc2ccccc2)n1)OC` [Example 10], the results for the MIC in the series with Botrytis cinera (setting [5]) and with Hansenula anomala (setting [6]) were 0.04 µg/mL (≈ 0.09 µM) and 0.3 µg/mL (≈ 0.675 µM), respectively. Also, in series [1], the “Therapeutic Index” value was determined as 1.25. In addition, in series [1] (setting [7]), the IC50 was 0.05 µg/mL (≈ 0.112 µM).

As to `COC(=O)/C=C(/OC)[C@H](C)[C@H](/C=C/c1csc(C2(C)CO2)n1)OC` (some centres unmarked) [Example 41, Methyl 7-[2-(1,2-epoxy-1-methylethyl)thiazol-4-yl]-3,5-dimethoxy-4-methylheptan-2,6-dienoate], the MIC in the series with Botrytis cinera (Botrytis) amounted to 0.6 µg/mL (≈ 1.7 µM); in the series with Hansenula anomala, 5 µg/mL (≈ 14.1 µM). For the same compound, in series [1] (Mus musculus, L929), the IC50 was over 3.7 µg/mL. For the same compound, the “Therapeutic Index” value in [1] was over 6.17.

Regarding `CO/N=C(\C)c1nc(/C=C/[C@H](OC)[C@@H](C)/C(=C\C(=O)OC)OC)cs1` [8:(E)-MCM], the MIC with Botrytis cinera (setting [5]) is 0.0025 µg/mL (≈ 0.00679 µM); in the series with Hansenula anomala (setting [6]), 0.08 µg/mL (≈ 0.217 µM). In addition, in [1], the “Therapeutic Index” value was 160. In addition, the IC50 in series [1] (setting [7]) came to 0.4 µg/mL (≈ 1.09 µM).
